According to the NIST ThermoML archive (doi:10.1016/j.jct.2014.02.022):
Numbers after ± are expanded uncertainties.

Key:
[1] = mn = molality of the nth substance listed, in mol/kg; conditions: 101 kPa, Liquid; for viscosity: Capillary tube (Ostwald / Ubbelohde) method; for mass density: Vibrating tube method
[2] = 101 kPa, Liquid; for viscosity: Capillary tube (Ostwald / Ubbelohde) method; for mass density: Vibrating tube method

Cc1ncc(CO)c(CO)c1O.Cl [5-hydroxy-6-methyl-3,4-pyridinedimethanol hydrochloride] + CO
[1]
Conditions | mass density, 298.15 K [kg/m3] | mass density, 308.15 K [kg/m3] | mass density, 318.15 K [kg/m3] | viscosity, 298.15 K [mPa·s] | viscosity, 308.15 K [mPa·s] | viscosity, 318.15 K [mPa·s]
m1 = 0.0127 | 789.07 ± 1 | 778.65 ± 1 | 769.25 ± 1 | 0.5562 ± 0.012 | 0.4853 ± 0.01 | 0.4275 ± 0.009
m1 = 0.0254 | 789.94 ± 1 | 779.85 ± 1 | 770.18 ± 1 | 0.5621 ± 0.012 | 0.4955 ± 0.01 | 0.4468 ± 0.0094
m1 = 0.0382 | 790.86 ± 1 | 780.83 ± 1 | 771.13 ± 1 | 0.5712 ± 0.012 | 0.5034 ± 0.011 | 0.464 ± 0.0098

CO [methanol]
[2]
Conditions | mass density [kg/m3] | viscosity [mPa·s]
298.15 K | 786.67 ± 1 | 0.543 ± 0.011
308.15 K | 777.18 ± 1 | 0.4708 ± 0.0099
318.15 K | 767.75 ± 1 | 0.4194 ± 0.0088

CO [methanol] + Cc1ncc(CO)c(CO)c1O.Cl
[1], m2 = 0
Conditions | mass density [kg/m3] | viscosity [mPa·s]
298.15 K | 786.67 ± 1 | 0.543 ± 0.011
308.15 K | 777.18 ± 1 | 0.4708 ± 0.0099
318.15 K | 767.75 ± 1 | 0.4194 ± 0.0088
